Literature values, collected in patent publication US20220395496A1 (Hoffmann-La Roche Inc., priority 2019, published 2022).
pIC50: −log10 of the molar value.

Key:
HEK/hTLR7 = biological target: T1, HEK/hTLR7 (Homo sapiens, UniProt Q9NYK1); settings: data disclosed in WO2015057655; cited from earlier work
T1 construct: host or cells: HEK cells
T1 sequence (Q9NYK1 27-1049): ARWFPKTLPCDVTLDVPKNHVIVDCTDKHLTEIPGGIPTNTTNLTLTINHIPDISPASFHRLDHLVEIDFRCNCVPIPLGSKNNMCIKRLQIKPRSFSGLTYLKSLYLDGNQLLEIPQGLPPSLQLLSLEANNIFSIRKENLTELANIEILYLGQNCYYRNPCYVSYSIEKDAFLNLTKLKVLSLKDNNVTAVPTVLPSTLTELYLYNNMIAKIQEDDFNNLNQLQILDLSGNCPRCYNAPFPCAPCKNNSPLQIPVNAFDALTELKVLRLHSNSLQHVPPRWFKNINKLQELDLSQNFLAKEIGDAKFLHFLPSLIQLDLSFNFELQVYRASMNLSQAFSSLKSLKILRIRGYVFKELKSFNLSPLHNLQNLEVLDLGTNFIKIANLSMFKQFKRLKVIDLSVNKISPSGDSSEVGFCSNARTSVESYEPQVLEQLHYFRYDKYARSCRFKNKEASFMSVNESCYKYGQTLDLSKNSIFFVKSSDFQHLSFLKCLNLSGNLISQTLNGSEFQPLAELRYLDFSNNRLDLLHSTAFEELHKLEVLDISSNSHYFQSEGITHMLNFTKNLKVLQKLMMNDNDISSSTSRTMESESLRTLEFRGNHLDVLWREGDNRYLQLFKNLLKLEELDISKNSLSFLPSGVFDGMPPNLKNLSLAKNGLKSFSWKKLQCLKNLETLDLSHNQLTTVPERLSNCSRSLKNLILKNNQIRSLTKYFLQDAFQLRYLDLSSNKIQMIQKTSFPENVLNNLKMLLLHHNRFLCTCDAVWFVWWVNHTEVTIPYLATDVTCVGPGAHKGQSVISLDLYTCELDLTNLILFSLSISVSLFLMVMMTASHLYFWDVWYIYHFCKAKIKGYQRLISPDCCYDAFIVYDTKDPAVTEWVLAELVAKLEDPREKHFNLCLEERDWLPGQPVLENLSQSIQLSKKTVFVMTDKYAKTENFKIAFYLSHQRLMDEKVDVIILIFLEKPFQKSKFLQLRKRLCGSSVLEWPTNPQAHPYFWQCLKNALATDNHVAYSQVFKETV

HEK/hTLR9 = biological target: T2, HEK/hTLR9 (Homo sapiens, UniProt Q9NR96); settings: data disclosed in WO2015057655; cited from earlier work
T2 construct: host or cells: HEK cells
T2 sequence (Q9NR96 26-1032): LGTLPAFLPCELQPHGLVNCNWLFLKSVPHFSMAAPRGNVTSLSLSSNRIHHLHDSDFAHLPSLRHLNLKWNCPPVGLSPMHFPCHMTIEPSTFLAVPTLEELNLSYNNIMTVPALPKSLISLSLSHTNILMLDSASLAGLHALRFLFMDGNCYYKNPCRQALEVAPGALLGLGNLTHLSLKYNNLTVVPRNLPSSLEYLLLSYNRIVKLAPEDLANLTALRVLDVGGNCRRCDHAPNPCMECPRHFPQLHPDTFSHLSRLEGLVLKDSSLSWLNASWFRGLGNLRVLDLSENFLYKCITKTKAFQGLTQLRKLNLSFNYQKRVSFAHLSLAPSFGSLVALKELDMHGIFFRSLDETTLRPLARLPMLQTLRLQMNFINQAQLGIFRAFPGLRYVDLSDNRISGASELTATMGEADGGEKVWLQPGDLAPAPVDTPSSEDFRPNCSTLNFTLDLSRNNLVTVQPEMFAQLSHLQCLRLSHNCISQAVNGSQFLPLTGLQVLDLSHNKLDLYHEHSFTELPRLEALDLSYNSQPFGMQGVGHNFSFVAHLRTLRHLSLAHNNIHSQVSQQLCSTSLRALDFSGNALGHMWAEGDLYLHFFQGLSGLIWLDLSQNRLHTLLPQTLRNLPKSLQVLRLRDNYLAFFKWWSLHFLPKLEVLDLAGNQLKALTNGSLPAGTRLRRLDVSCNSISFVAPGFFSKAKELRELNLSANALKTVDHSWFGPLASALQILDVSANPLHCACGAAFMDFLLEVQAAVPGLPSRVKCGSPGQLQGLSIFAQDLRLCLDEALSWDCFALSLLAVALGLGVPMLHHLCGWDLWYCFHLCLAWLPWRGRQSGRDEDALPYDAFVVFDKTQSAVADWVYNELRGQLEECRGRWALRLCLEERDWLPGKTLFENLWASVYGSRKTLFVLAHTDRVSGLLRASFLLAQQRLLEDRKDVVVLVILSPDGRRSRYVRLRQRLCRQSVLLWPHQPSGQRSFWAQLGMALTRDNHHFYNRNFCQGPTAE

| SMILES | pIC50 (HEK/hTLR7) | pIC50 (HEK/hTLR9) |
| --- | --- | --- |
| CC(N[C@@H]1C[C@H](C)CN(c2ccc(C#N)c3ncccc23)C1)c1ccccn1 (some centres unmarked) [ER-899607] | 6.83 | < 5.00 |
| C[C@H]1C[C@@H](NCc2ncco2)CN(c2ccc(C#N)c3ncccc23)C1 [ER-899551] | 7.37 | < 5.00 |
| C[C@H]1C[C@@H](NCc2ccc(C(F)(F)F)cn2)CN(c2ccc(C#N)c3ncccc23)C1 [ER-899543] | 7.32 | < 5.00 |
| C[C@H]1C[C@@H](NCc2cn(C)cn2)CN(c2ccc(C#N)c3ncccc23)C1 [ER-899552] | 6.68 | 5.71 |
